Data taken from patent publication US20260324697A1, “MATERIALS AND METHODS FOR MASKING BITTERNESS” (UNIVERSITY OF FLORIDA RESEARCH FOUNDATION, INCORPORATED, priority 2023, published 2026).
Counter-ions that a name gives are not always drawn.

What was measured:
Type in all cases: in vivo, persons (trained panelists)
[1] = Sensory panel testing of bitterness reduction of 500 ppm caffeine solutions; details: for Panel Score (0-15), bitterness: 0: no bitterness, 15: very bitter
Excerpt: (§1) Sensory testing was used to identify extracts that provide bitterness reduction and to evaluate the degree of bitterness reduction provided by specific compounds. In general, bitterness sensory testing involved providing test solutions to trained panelists who rated the perceived bitterness of test solutions. Panels consisted of three persons who can taste phenylthiocarbamide (PTC) test paper, and panelists were selected based on their ability to discriminate differences in the concentrations of bitterness. Panelists swirled an aliquot of a solution in the mouth for 15 seconds, spit out the test solution, and rated the perceived bitterness intensity of the solution on a scale of 0 to 15 (0: no bitterness, 15: very bitter). Panelists drank water after each test solution evaluation to remove the bitterness before evaluating the next solution.
(§2) Panel testing results can be used to quantify perceived changes in bitterness. The change in perceived bitterness of an ingestible composition following addition of a bitter-masking agent is defined herein as the percent change in the bitterness panel test rating of a composition to which a bitter-masking agent has been added compared to the bitterness panel test rating of the otherwise identical composition without the bitter-masking agent. For instance, if a composition is given a bitterness intensity rating of 8, and the same composition with addition of an amount of bitter-masking agent is given a bitterness intensity rating of 6, then the bitter-masking agent has provided a perceived change in bitterness of 25%.
Compound 1 was evaluated by sensory panel testing for bitterness reduction of caffeine solutions. A solution of 500 ppm caffeine in distilled water was used as a control solution having high bitterness, and Compound 1 was added to aliquots of the control solution to provide test solutions containing 500 ppm caffeine and 25, 50, or 100 ppm of Compound 1.

[2] = Sensory panel testing of perceived sweetness of 6 ppm sucrose solutions; details: for Panel Score (0-15), sweetness: 0: no sweetness, 15: very sweet
Excerpt: Similar panel testing was done to evaluate perceived sweetness of test solutions. Panelists swirled an aliquot of test solution in the mouth for 15 seconds, spit out the test solution, and rated the perceived sweetness intensity of the test solution on a scale of 0 to 15 (0: no sweetness, 15: very sweet). Panelists drank water after each test solution evaluation before evaluating the next test solution.
Panel testing results can be used to quantify perceived changes in sweetness in an analogous manner. The change in perceived sweetness of an ingestible composition following addition of a bitter-masking agent or other agent is defined herein as the percent change in the sweetness panel test rating of a composition to which a bitter-masking agent or other agent has been added compared to the sweetness panel test rating of the otherwise identical composition without the bitter-masking agent or other agent. For instance, if a composition is given a sweetness intensity rating of 8, and the same composition with addition of an amount of bitter-masking agent or other agent is given a sweetness intensity rating of 6, then the bitter-masking agent or other agent has provided a perceived change in sweetness of 25%.
A similar panel test was performed to assess whether the efficacy of Compound 1 at masking bitterness is derived from imparting sweetness. A solution of 6 ppm sucrose in distilled water was used as a sweetness control solution, and Compound 1 was added to three aliquots of the sweetness control solution to provide test solutions containing 6 ppm sucrose and 25, 50, or 100 ppm of Compound 1. Panelists then evaluated the sweetness intensity of each test solution.

[3] = Sensory panel testing of bitterness reduction of 6 ppm quinine solutions; details: for Panel Score (0-15), bitterness: 0: no bitterness, 15: very bitter
Excerpt: as §1, §2
Compound 1 was evaluated by sensory panel testing. A solution of 6 ppm quinine monohydrochloride dihydrate in distilled water was used as a control solution having high bitterness, and Compound 1 was added to aliquots of the control solution to provide test solutions containing 6 ppm quinine and 25, 50, or 100 ppm of Compound 1.
Compounds 2-5 were also evaluated by sensory panel testing in the same manner as Compound 1.
Sensory panel tests were also performed to evaluate whether crude extracts from allspice would be effective at reducing bitterness. Allspice was mixed with boiling water to obtain a crude aqueous mixture, and solvent was removed from the crude aqueous mixture using rotary evaporation to obtain a crude extract. The crude extract was used without further purification. An aqueous solution containing 6 ppm quinine was used as a bitterness control solution, and the crude extract was added to aliquots of the control solution to provide test solutions containing 6 ppm quinine and 100 ppm or 1000 ppm of the crude extract. The three solutions were evaluated by a sensory panel as described above.

For `COc1cc(C[C@@H](O)CO)ccc1O` [Compound 1, (2R)-3-(4-hydroxy-3-methoxyphenyl) propane-1,2-diol], the “Panel Score (0-15), bitterness” value ([1]; 25 ppm Compound 1 added to 500 ppm caffeine) was 3.5, the “Panel Score (0-15), bitterness” value ([1]; 50 ppm Compound 1 added to 500 ppm caffeine) was 4.0 and the “Panel Score (0-15), bitterness” value ([1]; 100 ppm Compound 1 added to 500 ppm caffeine) was 3.8. The “masking of the bitterness of caffeine solutions” value ([1]; 500 ppm caffeine, 25, 50, or 100 ppm Compound 1) was “did not significantly mask the bitterness of caffeine solutions”, the “contribution to perceived sweetness of the test solutions” value ([2]; 6 ppm sucrose, 25, 50, or 100 ppm Compound 1) was “did not contribute to perceived sweetness of the test solutions” and the “Panel Score (0-15), sweetness” value ([2]; 25 ppm Compound 1 added to 6 ppm sucrose) was 7.2. For the same compound, the “Panel Score (0-15), sweetness” value ([2]; 50 ppm Compound 1 added to 6 ppm sucrose) was 6.8, the “Panel Score (0-15), sweetness” value ([2]; 100 ppm Compound 1 added to 6 ppm sucrose) was 7.2 and the “perceived bitterness of quinine solutions” value ([3]; 6 ppm quinine, 25, 50, or 100 ppm Compound 1) was “markedly reduced the perceived bitterness of quinine solutions”. For the same compound, the “Panel Score (0-15), bitterness” value ([3]; 25 ppm Compound 1 added to 6 ppm quinine) was 5.0, the “Panel Score (0-15), bitterness” value ([3]; 50 ppm Compound 1 added to 6 ppm quinine) was 3.0 and the “Panel Score (0-15), bitterness” value ([3]; 100 ppm Compound 1 added to 6 ppm quinine) was 0.8.

With `Cn1c(=O)c2c(ncn2C)n(C)c1=O` [caffeine, reference compound] the “Panel Score (0-15), bitterness” value ([1]; 500 ppm caffeine alone (control)) was 3.0.

In the case of `C=C[C@H]1C[N@@]2CC[C@H]1C[C@H]2[C@H](O)c1ccnc2ccc(OC)cc12` [quinine, quinine monohydrochloride dihydrate, reference compound], the “Panel Score (0-15), bitterness” value ([3]; 6 ppm quinine alone (control), Example 2) is reported as 6.0 and the “Panel Score (0-15), bitterness” value ([3]; 6 ppm quinine alone (control), Example 3) is reported as 6.0.

In the case of `OC[C@H]1O[C@@](CO)(O[C@H]2O[C@H](CO)[C@@H](O)[C@H](O)[C@H]2O)[C@@H](O)[C@@H]1O` [sucrose, reference compound], the “Panel Score (0-15), sweetness” value ([2]; 6 ppm sucrose alone (control)) is reported as 7.0.
